Data on 6 compounds can be found in ChEMBL document CHEMBL1201862, “PubChem BioAssay data set” (2004).

The source made the active and inactive calls.

Assay [1] addresses T1, Streptokinase A (Streptococcus pyogenes serotype M1, UniProt P10520).
T1 sequence (P10520 whole entry): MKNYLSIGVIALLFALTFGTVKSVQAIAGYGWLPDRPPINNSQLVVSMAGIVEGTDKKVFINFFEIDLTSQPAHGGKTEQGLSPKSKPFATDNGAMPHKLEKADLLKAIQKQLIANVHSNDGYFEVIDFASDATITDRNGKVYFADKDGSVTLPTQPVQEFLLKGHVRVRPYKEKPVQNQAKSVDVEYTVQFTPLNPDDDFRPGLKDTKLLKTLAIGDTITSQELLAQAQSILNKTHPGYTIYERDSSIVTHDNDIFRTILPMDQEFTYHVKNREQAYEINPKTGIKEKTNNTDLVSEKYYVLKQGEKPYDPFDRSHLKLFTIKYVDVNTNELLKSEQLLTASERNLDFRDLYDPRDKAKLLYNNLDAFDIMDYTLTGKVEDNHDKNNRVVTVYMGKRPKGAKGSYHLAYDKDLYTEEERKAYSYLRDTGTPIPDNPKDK
The assay can be described thus: S. pyogenes streptokinase expression inhibitors, potency, dose response, plasminogen activation absorbance, OD405 (AID 1914).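 Also: secreted streptokinase activity via plasminogen activation per viability signal from cell pellet.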 In kind it is functional, Streptococcus pyogenes M1 GAS.

Assay [2] addresses T2, Sentrin-specific protease 6 (Homo sapiens, UniProt Q9GZR1).
T2 sequence (Q9GZR1 whole entry): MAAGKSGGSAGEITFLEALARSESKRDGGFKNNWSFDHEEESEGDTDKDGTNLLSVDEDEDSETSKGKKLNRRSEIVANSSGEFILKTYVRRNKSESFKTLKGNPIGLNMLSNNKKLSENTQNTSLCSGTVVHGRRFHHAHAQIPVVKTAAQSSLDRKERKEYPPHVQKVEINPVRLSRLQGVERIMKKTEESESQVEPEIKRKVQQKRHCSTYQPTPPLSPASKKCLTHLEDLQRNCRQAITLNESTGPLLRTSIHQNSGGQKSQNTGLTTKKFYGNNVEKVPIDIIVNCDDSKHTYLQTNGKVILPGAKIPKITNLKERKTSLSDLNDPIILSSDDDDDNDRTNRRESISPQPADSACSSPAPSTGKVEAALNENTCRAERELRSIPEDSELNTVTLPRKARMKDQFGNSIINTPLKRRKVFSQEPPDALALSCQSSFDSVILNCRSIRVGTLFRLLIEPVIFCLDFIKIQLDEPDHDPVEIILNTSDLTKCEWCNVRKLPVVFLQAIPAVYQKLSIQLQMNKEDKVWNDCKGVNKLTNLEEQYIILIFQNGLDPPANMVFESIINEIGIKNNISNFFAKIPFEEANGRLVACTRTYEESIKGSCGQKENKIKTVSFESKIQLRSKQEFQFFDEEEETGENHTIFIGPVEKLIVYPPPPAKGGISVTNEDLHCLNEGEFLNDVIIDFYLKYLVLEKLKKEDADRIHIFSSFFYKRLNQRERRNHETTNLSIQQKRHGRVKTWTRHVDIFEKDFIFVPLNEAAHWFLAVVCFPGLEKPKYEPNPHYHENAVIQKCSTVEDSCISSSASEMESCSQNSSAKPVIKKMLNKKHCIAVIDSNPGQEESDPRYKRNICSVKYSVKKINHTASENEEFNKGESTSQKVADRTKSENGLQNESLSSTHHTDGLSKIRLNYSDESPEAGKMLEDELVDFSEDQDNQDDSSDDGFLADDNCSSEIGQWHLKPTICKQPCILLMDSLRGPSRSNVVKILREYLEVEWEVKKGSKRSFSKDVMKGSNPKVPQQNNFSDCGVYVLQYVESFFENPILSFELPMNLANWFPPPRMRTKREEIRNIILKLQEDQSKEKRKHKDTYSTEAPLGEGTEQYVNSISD
The format is functional.

For assay [3], the target named is Vascular endothelial growth factor receptor 2 (Homo sapiens, UniProt P35968). The format is functional.
The target of assay [4] is Cyclin-dependent kinase 8 (Homo sapiens, UniProt P49336). The assay can be described thus: Navigating the Kinome. Panel member name: CDK8. The format is functional.
The target in assay [5] is Tyrosine-protein kinase receptor TYRO3 (Homo sapiens, UniProt Q06418). In kind it is functional.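 Also: TYRO3 value obtained as one member of a kinome-wide profiling panel.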
Assay [6] addresses Dual specificity protein kinase CLK4 (Homo sapiens, UniProt Q9HAZ1). The format is functional.
Assay [7] has as its target Mitogen-activated protein kinase kinase kinase kinase 4 (Homo sapiens, UniProt O95819). The format is functional.
The target of assay [8] is ALK tyrosine kinase receptor (Homo sapiens, UniProt Q9UM73). The format is functional.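 Also: ALK tested as one member of a kinase panel screen.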
Assay [9] addresses Aurora kinase A (Homo sapiens, UniProt O14965). The format is functional.
For assay [10], the target named is Calcium/calmodulin-dependent protein kinase type II subunit alpha (Homo sapiens, UniProt Q9UQM7). The assay can be described thus: Navigating the Kinome. Panel member name: CAMK2A. The format is functional.
Assay [11] has as its target Serine/threonine-protein kinase TBK1 (Homo sapiens, UniProt Q9UHD2). The assay can be described thus: Navigating the Kinome. Panel member name: TBK1. The format is functional.
Assay [12] has as its target Cyclin-dependent kinase 9 (Homo sapiens, UniProt P50750). In kind it is functional.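 Also: value from the CDK9 entry of a kinome-spanning kinase panel.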
Assay [13] concerns the target Insulin-like growth factor 1 receptor (Homo sapiens, UniProt P08069). The assay can be described thus: Navigating the Kinome. Panel member name: IGF1R. In kind it is functional.
The target in assay [14] is Inhibitor of nuclear factor kappa-B kinase subunit epsilon (Homo sapiens, UniProt Q14164). The assay can be described thus: Navigating the Kinome. Panel member name: IKBKE. In kind it is functional.
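For IC50 in this document: Luminescence-based dose-response confirmatory assay of SENP6 inhibition, following up an ultra-high-throughput screen.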

Cyclin-dependent kinase 8, sequence (P49336 whole entry): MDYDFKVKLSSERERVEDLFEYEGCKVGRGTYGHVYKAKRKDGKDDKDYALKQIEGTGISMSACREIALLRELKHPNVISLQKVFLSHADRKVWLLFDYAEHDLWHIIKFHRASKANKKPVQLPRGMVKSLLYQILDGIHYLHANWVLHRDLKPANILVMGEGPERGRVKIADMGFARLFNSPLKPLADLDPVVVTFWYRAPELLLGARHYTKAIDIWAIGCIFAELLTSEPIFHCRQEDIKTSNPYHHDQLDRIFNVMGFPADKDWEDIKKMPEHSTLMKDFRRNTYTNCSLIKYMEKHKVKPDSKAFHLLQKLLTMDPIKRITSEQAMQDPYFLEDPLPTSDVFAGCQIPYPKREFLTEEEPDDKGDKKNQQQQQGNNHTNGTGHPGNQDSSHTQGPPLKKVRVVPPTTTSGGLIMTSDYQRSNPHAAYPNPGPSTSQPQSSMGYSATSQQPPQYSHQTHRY
Serine/threonine-protein kinase TBK1, sequence (Q9UHD2 whole entry): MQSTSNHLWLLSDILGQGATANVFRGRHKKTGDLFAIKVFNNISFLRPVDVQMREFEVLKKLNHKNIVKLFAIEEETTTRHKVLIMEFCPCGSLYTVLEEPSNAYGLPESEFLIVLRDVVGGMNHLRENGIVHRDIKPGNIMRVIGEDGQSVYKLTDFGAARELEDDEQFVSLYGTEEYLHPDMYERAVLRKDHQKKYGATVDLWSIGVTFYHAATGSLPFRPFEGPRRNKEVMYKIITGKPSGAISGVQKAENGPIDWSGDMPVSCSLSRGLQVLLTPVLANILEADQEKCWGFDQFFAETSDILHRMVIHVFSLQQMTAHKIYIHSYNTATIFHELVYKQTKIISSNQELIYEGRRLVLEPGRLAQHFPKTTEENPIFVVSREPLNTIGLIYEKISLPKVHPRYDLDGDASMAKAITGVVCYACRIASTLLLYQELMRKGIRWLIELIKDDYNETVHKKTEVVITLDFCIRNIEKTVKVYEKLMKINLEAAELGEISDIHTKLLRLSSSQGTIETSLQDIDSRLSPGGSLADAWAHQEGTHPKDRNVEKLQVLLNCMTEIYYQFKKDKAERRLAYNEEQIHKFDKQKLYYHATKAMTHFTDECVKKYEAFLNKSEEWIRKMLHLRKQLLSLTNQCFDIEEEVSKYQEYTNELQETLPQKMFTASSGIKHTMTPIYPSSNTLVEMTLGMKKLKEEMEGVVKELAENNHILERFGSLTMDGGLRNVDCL
Mitogen-activated protein kinase kinase kinase kinase 4, sequence (O95819 whole entry): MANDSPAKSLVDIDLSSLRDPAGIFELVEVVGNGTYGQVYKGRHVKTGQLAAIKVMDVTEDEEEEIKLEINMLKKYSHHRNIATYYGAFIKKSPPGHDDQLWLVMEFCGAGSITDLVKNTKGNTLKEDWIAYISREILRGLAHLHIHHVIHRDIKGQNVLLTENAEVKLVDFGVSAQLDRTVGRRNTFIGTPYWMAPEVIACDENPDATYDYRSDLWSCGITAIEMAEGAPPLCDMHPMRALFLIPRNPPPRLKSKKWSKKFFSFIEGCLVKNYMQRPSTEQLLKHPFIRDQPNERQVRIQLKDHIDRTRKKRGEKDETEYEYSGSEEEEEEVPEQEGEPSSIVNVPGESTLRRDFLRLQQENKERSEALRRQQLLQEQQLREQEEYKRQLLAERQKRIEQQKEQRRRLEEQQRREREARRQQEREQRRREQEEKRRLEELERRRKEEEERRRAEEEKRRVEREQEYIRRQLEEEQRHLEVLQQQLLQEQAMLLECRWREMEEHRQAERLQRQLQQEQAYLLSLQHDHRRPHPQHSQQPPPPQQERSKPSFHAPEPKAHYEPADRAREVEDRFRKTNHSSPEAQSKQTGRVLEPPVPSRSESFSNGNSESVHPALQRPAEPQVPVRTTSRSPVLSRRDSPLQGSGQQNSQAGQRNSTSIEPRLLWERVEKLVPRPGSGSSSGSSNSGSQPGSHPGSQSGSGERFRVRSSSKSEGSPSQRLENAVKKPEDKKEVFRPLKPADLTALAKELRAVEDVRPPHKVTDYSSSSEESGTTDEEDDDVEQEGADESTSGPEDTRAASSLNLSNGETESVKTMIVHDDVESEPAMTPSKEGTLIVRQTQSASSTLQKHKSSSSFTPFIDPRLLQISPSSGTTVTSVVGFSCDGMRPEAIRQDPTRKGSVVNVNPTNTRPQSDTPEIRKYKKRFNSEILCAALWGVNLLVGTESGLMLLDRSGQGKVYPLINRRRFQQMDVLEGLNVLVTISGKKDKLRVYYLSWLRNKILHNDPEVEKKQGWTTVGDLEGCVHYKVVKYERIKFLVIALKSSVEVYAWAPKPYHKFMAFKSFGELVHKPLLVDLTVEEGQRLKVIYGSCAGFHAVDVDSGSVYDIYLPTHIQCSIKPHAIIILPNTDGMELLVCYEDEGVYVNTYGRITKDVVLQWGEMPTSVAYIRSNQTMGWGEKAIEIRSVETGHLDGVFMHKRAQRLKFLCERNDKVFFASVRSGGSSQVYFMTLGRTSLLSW
ALK tyrosine kinase receptor, sequence (Q9UM73 whole entry): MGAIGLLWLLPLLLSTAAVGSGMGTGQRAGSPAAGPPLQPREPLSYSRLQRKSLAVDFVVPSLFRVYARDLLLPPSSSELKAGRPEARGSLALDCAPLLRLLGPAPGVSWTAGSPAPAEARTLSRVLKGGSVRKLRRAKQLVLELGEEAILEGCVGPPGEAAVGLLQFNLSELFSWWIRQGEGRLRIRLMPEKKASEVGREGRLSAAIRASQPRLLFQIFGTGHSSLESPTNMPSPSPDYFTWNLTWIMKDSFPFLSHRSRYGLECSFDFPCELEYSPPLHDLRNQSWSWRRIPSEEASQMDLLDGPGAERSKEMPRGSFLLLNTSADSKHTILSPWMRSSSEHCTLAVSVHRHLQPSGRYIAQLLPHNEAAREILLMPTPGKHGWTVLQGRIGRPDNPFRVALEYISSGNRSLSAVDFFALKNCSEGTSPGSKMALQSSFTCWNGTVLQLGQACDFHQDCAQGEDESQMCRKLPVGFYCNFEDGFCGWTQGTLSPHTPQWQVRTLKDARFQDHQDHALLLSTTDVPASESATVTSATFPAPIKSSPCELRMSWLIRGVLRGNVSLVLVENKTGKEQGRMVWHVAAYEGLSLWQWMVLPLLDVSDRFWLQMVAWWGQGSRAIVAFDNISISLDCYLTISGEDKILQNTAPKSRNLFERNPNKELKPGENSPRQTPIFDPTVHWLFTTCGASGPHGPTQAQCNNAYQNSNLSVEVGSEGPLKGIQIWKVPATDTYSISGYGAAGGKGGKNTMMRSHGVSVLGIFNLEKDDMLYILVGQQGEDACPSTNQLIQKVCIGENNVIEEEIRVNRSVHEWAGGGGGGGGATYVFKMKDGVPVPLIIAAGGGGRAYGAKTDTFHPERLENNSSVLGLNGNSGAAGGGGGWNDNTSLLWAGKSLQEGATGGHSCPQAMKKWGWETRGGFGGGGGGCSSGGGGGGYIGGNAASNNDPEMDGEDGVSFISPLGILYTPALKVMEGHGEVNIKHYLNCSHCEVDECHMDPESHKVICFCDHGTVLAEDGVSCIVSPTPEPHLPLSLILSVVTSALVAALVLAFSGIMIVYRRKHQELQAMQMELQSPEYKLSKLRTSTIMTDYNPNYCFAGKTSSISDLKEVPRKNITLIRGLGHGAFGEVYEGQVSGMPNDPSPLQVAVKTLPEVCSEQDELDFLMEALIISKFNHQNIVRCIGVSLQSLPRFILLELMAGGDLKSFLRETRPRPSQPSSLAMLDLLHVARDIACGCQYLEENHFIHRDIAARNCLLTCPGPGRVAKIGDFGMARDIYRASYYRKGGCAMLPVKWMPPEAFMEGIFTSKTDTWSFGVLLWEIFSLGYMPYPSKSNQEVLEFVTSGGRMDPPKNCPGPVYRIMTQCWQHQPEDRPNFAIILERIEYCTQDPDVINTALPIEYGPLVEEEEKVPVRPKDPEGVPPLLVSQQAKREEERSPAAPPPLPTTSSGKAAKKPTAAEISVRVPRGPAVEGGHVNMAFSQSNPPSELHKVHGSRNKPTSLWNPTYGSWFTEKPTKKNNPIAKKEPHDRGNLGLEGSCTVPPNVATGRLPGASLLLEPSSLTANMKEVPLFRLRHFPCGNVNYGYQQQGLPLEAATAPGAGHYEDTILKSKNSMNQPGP
Calcium/calmodulin-dependent protein kinase type II subunit alpha, sequence (Q9UQM7 whole entry): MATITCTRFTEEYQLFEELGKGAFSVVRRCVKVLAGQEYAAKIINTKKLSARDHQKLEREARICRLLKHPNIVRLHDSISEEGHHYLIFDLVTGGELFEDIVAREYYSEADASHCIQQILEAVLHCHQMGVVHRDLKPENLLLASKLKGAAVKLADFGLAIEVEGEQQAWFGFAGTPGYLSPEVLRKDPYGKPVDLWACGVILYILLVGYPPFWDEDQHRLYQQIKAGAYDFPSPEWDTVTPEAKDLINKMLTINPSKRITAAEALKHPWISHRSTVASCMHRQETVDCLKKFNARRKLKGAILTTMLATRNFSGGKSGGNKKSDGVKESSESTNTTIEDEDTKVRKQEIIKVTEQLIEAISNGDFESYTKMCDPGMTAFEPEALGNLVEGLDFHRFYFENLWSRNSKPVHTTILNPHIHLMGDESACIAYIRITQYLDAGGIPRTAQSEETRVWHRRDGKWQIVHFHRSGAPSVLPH
Dual specificity protein kinase CLK4, sequence (Q9HAZ1 whole entry): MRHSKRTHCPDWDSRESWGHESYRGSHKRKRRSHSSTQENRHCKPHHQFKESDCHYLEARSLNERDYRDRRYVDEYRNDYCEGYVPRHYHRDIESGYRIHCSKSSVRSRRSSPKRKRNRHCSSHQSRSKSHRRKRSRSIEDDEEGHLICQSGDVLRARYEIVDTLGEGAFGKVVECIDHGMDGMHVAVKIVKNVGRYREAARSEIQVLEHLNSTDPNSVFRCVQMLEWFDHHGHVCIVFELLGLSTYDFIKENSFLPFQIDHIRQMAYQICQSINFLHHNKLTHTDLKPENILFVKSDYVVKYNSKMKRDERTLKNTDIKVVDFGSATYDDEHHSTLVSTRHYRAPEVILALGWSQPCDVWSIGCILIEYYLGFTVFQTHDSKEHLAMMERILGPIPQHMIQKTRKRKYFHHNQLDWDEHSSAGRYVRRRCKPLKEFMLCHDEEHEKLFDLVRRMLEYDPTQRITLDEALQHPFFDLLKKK

Broadly, the EC50 is the concentration that produces a half-maximal response. A higher EC50 goes with a less potent agent. As to `CNC[C@H](Cc1ccccc1)NC[C@@H](Cc1cccc2ccccc12)NCCc1ccc(C)cc1`, in assay [1], the EC50 was > 150000 nM (not active).

As a reminder, the IC50 is the concentration needed to halve the response being measured. Take `Nc1nnc2c(n1)CCCC2`: the IC50 in assay [2] was 7370 nM (active).

Turning to `O=C(N/N=C/c1c(O)ccc2ccccc12)c1[nH]ncc1Br`, the IC50 in assay [2] was > 100000 nM (inactive).

The Ki is a measure of affinity in units of concentration, obtained from inhibition or displacement. `Nc1c(-c2ccc(NC(=O)Nc3cccc(C(F)(F)F)c3)cc2)cnc2c(-c3ccc4c(c3)OCO4)cnn12`: the Ki is 12.6 nM (active) in [3]; 25.1 nM (active) in assay [4]; 1260 nM (active) in assay [5]; > 2510 nM (inactive) in assay [6]; > 5010 nM (inactive) in [7]; > 6310 nM (inactive) in assay [8]. The Ki in assay [9] is > 1580 nM (inactive); in [10], > 3980 nM (inactive); in assay [11], > 3160 nM (inactive); in assay [12], > 1580 nM (inactive); in assay [13], > 2510 nM (inactive); in assay [14], > 3160 nM (inactive).

On to `O=C(Nc1cc(-c2c[nH]c3ncccc23)cc(Cl)n1)c1ccccc1`, for which the Ki was > 2510 nM (inactive) in [3]; 79.4 nM (active) in assay [4]; > 3160 nM (inactive) in [5]; 25.1 nM (active) in assay [6]; 2510 nM (active) in [7]; > 6310 nM (inactive) in assay [8]. Besides, the Ki in assay [9] is > 1580 nM (inactive); in [10], > 7940 nM (inactive); in assay [11], > 3160 nM (inactive); in assay [12], > 1580 nM (inactive); in [13], > 2510 nM (inactive); in [14], > 3160 nM (inactive).

For `CCN1C(=Cc2sc3ccccc3[n+]2C)C=Cc2cccc(C)c21`, in assay [1], the EC50 was > 150000 nM (not active).
